Experimental data: patent US20070155764A1, “NOVEL SUBSTITUTED PYRIMIDINYLOXY UREAS USEFUL AS INHIBITORS OF PROTEIN KINASES” (KALYPSYS, INC., priority 2005, published 2007)

Experiments:
[1] = tested on: HT-29 human colon carcinoma tumor cells; assay: In vivo anti-tumor activity, HT-29 xenograft; conditions: 60 mg/kg once daily by oral gavage; for T/C (%): HT-29 subcutaneous tumors in female Balb/C nu/nu mice, treated/control average tumor size at end of study; for Survival: HT-29 tumor-bearing female Balb/C nu/nu mice, surviving/total
Description: In Vivo Anti-Tumor Activity
Acclimated female Balb/C nu/nu mice are injected subcutaneously into the flank with cell pellets of 5×10^6 HT-29 human colon carcinoma tumor cells (ATCC #HTB-38). The mice are fed sterile rodent chow and water ad libitum, and kept in pathogen-free, sterile-filtered cages with half-day light/dark cycles. Tumors are allowed to grow until they reach an average size of 100-150 mm^3, determined by caliper measurement. One day before beginning treatment, mice are randomized by tumor size into evenly distributed cohorts. Mice are dosed once daily by oral gavage (10 ml/kg) with compounds formulated as solutions in Cremaphor EL:Ethanol:Water, at a 1:1:6 ratio. Control mice are dosed with the formulation vehicle only. Tumor size and mouse weight are monitored every three to four days. At the end of the study, treatment efficacy is determined by the T/C value, calculated by dividing the average tumor size of a compound-treated cohort by the average tumor size of the control-treated cohort, expressed as a percentage. Therefore, anti-tumor efficacy is inversely proportional to the T/C.

[2] = target: T1, PDGFRβ kinase (Homo sapiens, UniProt P09619); assay: In vitro PDGFRβ kinase assay; assay type: biochemical; conditions: ADP Quest assay, poly Glu:Tyr substrate, 60 μM ATP
T1 construct: purchased Invitrogen Inc. P3082
How it was run: (§1)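 Compound was preincubated 10 min at ~22 °C with 20 ng VEGFR2 or 25 ng PDGFRβ, then poly Glu:Tyr (4:1) substrate (0.25 μg) with 60 μM ATP (in added buffer) was reacted 2 h at 30 °C. ADP Quest resorufin fluorescence was read (ex 530/em 580) after 30 min. Efficacy is expressed as percent of positive-control (Bay 43-9006) activity, with DMSO as negative control.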

[3] = target: T2, human B-Raf protein kinase (Homo sapiens, UniProt P15056); assay: In vitro B-Raf/Mek1 composite kinase assay; assay type: biochemical; conditions: recombinant GST-tagged human B-Raf (Δ1-415) with inactive Mek1, 2 μM ATP
T2 construct: GST (N); purchased Upstate Inc. 14-530 (B-Raf); 14-420 (Mek1)
How it was run: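 Luminescent ATP-depletion assay using recombinant N-terminal GST-tagged human B-Raf (Δ1-415, 1 ng/well) in MOPS pH 7.2 buffer with 10 mM MgCl2. Compounds were preincubated 15 min at about 22° C, then the reaction ran 2 h before PKLight readout. Efficacy is expressed as percentage of positive-control (Bay 43-9006) activity.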

[4] = target: T3, VEGFR2 kinase (Homo sapiens, UniProt P35968); assay: In vitro VEGFR2 kinase assay; assay type: biochemical; conditions: ADP Quest assay, poly Glu:Tyr substrate, 60 μM ATP
T3 construct: purchased Invitrogen Inc PV3660
How it was run: as §1

T1 sequence (P09619 33-1106): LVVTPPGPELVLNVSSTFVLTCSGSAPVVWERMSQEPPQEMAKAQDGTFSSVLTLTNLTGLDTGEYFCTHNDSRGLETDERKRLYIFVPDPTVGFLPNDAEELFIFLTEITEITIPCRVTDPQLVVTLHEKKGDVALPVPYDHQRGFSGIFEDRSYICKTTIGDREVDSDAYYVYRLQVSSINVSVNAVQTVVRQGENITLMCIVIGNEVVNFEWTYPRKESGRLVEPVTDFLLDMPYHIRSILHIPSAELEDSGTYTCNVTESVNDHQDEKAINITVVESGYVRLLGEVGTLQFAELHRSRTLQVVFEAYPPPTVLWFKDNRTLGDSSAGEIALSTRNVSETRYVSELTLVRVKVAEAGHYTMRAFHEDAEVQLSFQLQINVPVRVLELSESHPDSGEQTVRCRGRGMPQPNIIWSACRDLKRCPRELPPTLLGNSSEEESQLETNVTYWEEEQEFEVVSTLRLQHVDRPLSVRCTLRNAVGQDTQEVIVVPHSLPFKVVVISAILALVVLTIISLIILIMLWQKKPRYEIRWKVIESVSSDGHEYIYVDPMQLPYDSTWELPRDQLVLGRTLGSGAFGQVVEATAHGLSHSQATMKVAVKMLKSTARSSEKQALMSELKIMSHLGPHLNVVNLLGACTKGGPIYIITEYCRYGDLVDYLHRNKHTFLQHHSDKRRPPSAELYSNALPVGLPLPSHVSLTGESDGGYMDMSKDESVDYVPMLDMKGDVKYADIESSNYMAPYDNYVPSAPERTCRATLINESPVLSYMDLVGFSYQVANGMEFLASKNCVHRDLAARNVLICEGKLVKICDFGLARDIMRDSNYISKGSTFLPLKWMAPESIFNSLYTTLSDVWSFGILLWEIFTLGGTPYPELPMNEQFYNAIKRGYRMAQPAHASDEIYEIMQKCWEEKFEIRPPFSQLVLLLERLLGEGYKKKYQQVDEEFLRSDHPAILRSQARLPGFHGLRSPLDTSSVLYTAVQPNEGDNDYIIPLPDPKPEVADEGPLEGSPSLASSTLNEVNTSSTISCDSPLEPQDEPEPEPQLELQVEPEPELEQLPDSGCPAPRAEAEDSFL
T3 sequence (P35968 20-1356): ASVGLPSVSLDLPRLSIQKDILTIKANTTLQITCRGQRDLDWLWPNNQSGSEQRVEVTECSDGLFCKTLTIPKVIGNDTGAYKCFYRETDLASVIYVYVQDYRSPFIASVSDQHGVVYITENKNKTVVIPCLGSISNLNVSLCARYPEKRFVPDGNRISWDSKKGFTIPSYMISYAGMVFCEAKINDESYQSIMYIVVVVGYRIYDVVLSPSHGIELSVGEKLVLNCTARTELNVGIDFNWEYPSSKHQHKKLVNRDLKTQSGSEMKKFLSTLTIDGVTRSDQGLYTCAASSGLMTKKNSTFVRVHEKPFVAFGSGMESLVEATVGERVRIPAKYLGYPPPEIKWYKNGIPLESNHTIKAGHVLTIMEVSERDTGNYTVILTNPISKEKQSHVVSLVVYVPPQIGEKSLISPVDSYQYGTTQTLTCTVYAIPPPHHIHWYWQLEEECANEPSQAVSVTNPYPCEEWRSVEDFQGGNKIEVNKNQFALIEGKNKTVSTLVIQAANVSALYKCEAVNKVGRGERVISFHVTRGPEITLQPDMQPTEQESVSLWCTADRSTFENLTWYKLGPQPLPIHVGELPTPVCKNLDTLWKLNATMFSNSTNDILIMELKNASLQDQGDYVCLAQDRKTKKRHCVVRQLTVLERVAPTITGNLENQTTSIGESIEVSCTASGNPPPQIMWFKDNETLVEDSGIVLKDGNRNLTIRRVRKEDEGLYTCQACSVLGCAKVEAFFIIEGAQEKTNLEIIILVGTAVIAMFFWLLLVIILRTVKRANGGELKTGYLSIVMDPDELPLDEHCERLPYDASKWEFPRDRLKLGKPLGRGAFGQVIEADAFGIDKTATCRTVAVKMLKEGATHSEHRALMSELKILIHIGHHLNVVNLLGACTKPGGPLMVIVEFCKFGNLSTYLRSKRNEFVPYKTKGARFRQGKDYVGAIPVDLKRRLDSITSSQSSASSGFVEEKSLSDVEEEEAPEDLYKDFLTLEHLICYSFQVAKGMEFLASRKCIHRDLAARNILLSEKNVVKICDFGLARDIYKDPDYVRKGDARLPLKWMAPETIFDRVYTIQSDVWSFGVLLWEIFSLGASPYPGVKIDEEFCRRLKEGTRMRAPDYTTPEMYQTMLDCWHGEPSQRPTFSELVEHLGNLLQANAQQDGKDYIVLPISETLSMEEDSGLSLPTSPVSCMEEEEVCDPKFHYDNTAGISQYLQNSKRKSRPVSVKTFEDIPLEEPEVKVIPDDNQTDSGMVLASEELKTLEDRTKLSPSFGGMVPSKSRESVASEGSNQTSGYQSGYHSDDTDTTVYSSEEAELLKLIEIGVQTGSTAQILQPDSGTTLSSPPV
T2 sequence (P15056 416-766): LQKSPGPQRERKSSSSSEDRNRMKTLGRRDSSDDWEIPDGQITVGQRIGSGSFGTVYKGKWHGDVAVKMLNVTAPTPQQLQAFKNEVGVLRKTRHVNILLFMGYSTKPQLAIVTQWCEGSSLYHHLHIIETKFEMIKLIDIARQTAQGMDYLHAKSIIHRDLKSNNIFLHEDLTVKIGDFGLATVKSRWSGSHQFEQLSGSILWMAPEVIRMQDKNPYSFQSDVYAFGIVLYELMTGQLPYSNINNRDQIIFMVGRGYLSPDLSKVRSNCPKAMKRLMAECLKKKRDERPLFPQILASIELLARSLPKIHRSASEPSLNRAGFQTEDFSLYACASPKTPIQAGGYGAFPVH

SMILES | T/C (%) [1] [%] | Survival [1] | IC50 [2] [µM] | IC50 [3] [µM] | IC50 [4] [µM]
Cn1cc(-c2cc(Oc3cccc(NC(=O)Nc4ccc(Cl)c(C(F)(F)F)c4)c3)ncn2)cn1 [Example 34, 1-(4-Chloro-3-(trifluoromethyl)phenyl)-3-(3-(6-(1-methyl-1H-pyrazol-4-yl)pyrimidin-4-yloxy)phenyl)urea] | 20 | 10/10 | ≤ 10 | ≤ 10 | ≤ 10
Cn1cc(-c2cc(Oc3cccc(NC(=O)Nc4ccc(C(F)(F)F)cc4)c3)ncn2)cn1 [Example 87, 1-(3-(6-(1-Methyl-1H-pyrazol-4-yl)pyrimidin-4-yloxy)phenyl)-3-(4-(trifluoromethyl)phenyl)urea] | 15 | 10/10 | ≤ 10 | ≤ 10 | ≤ 10
